# Measurements taken from patent publication US10561638B2, “Methods for treating dependence” (Biotie Therapies, Inc., priority 2007, dated 2020).
# System: normotensive Wistar rats
# Experiment: 7 day radio-telemetry study in normotensive Wistar rats
# Method: Male Crl:COBS(WI)BR rats of 15 weeks old were used.
# Both nepicastat and hydralazine were prepared in water with traces of Tween 80. All doses were given orally to the rat in 10 ml/kg and were expressed as free base equivalents.
# All values were expressed as means±SEM. Statistical significance was defined as a p level of less than 0.05.
# Body weights were recorded daily.
smiles,measurement,setting,value
"Cl.NCc1c[nH]c(=S)n1[C@H]1CCc2c(F)cc(F)cc2C1 [nepicastat, (S)-5-Aminomethyl-1-(5,7-difluoro-1,2,3,4-tetrahydronaphth-2-yl)-2,3-dihydro-2-thioxo-1H-imidazole hydrochloride]",peak decrease in blood pressure,"30 mg/kg/d, day 2",−10 mmHg
same,peak antihypertensive response on day 1,"100 mg/kg, 22 hr after dosing",−11 mmHg
